Data reported in patent US8148424B2, “Tocopherols, tocotrienols, other chroman and side chain derivatives and uses thereof” (Research Development Foundation, priority 1998, dated 2012).
≈ marks a conversion by molar mass, not a printed value.

Assays:
[1] = tested on: human cancer cells from a wide variety of cell lineages; assay: Apoptosis induction in a battery of tumor cells; type: cell-based; conditions: breast, prostate, leukemia/lymphoid, cervical, ovarian, endometrial, colon, lung cell lines
Method: (§1) Cells were cultured at 1.5×10^5 cells/well in 12 well plates. Cells were allowed to adhere overnight, then incubated with novel test compounds at 0.01, 0.1, 1, 5, 10 & 20 μg/mL for 1, 2 and 3 days. After treatment, cells (floating+trypsin released adherent cells) were pelleted, washed and stained with 2 μg/ml DAPI (4′,6-diamidine-2′-phenylindole dihydrochloride) in 100% methanol for 15 minutes at 37° C. and/or 3′-OH ends resulting from DNA fragmentation were detected with the TUNEL (terminal deoxynucleotidyl transferase-mediated dUTP-X 3′ nick end-labeling) technique, and then viewed using a Zeiss ICM 405 microscope. Cells whose nucleus contained clearly condensed or fragmented chromatin or stained for fragmented DNA in the TUNEL assay were scored as apoptotic. Data are presented as percent cells undergoing apoptosis.

MDA-MB-435 = assay: Bioassay for apoptosis (apoptotic EC50); type: cell-based, human; conditions: for EC50: Homo sapiens, MDA-MB-435, MDA-MB-435, unit inferred, read-out: apoptotic EC50
Method: as §1

LnCaP = assay: Bioassay for apoptosis (apoptotic EC50); type: cell-based, human; conditions: for EC50: Homo sapiens, unit inferred
Method: as §1

ME-180 = assay: Bioassay for apoptosis (apoptotic EC50); type: cell-based, human; conditions: for EC50: Homo sapiens, ME-180, ME-180, unit inferred
Method: as §1

HL-60 = assay: Bioassay for apoptosis (apoptotic EC50); type: cell-based, human; conditions: for EC50: Homo sapiens, HL-60, HL-60, unit inferred
Method: as §1

MCF-7 = assay: Bioassay for apoptosis (apoptotic EC50); type: cell-based, human; conditions: for EC50: Homo sapiens, MCF7, MCF-7, unit inferred
Method: as §1

DU-145 = assay: Bioassay for apoptosis (apoptotic EC50); type: cell-based, human
Method: as §1

Jurkat = assay: Bioassay for apoptosis (apoptotic EC50); type: cell-based, human; conditions: unit not given, in µg/mL
Method: as §1

A-549 = assay: Bioassay for apoptosis (apoptotic EC50); type: cell-based, human; conditions: unit not given, in µg/mL
Method: as §1

C-170 = assay: Bioassay for apoptosis (apoptotic EC50); type: cell-based, human; conditions: for EC50: Homo sapiens, C170, C-170, unit inferred
Method: as §1

HMEC = assay: Bioassay for apoptosis (apoptotic EC50); type: cell-based; conditions: Homo sapiens, unit inferred
Method: as §1

MCF-10A = assay: Bioassay for apoptosis (apoptotic EC50); type: cell-based; conditions: Homo sapiens, unit inferred
Method: as §1

RL-95-2 = assay: Bioassay for apoptosis (apoptotic EC50); type: cell-based, human; conditions: Homo sapiens, RL95-2, RL-95-2; unit inferred
Method: as §1

PC-3 = assay: Bioassay for apoptosis (apoptotic EC50); type: cell-based, human; conditions: Homo sapiens, PC-3, PC-3; unit inferred
Method: as §1

MDA-MB-231 = assay: Bioassay for apoptosis (apoptotic EC50); type: cell-based, human; conditions: Homo sapiens, MDA-MB-231, MDA-MB-231; unit inferred
Method: as §1

HT-29 = assay: Bioassay for apoptosis (apoptotic EC50); type: cell-based, human; conditions: Homo sapiens, unit inferred
Method: as §1

| EC50 (HMEC) | EC50 (MDA-MB-435) | EC50 (RL-95-2) | EC50 (LnCaP) | EC50 (PC-3) | EC50 (MDA-MB-231) | EC50 (ME-180) | EC50 (HL-60) | EC50 (MCF-7) | EC50 (C-170) | Structure (SMILES) | growth inhibitory (apoptotic inducing) properties specific for human cancer cells [1] | EC50 (MCF-10A) | also measured |
| --- | --- | --- | --- | --- | --- | --- | --- | --- | --- | --- | --- | --- | --- |
|  | > 20 µg/mL |  |  | > 20 µg/mL |  |  |  | > 20 µg/mL |  | CCCCCCC[C@]1(C)CCc2c(C)c(OCC(=O)O)c(C)c(C)c2O1 [Compound 23, 2,5,7,8-tetramethyl-(2R-(heptyl)chroman-6-yloxy)acetic acid] |  | > 20 µg/mL | EC50 (HT-29): > 20 µg/mL; EC50 (DU-145; Homo sapiens, unit inferred): > 20 µg/mL |
| > 20 µg/mL | 5 to 10 µg/mL (≈ 10.9 to 21.7 µM) | 5 to 10 µg/mL (≈ 10.9 to 21.7 µM) | 5 to 10 µg/mL (≈ 10.9 to 21.7 µM) | 5 to 10 µg/mL (≈ 10.9 to 21.7 µM) | 5 to 10 µg/mL (≈ 10.9 to 21.7 µM) | 5 to 10 µg/mL (≈ 10.9 to 21.7 µM) | 10 to 20 µg/mL (≈ 21.7 to 43.4 µM) | 10 to 20 µg/mL (≈ 21.7 to 43.4 µM) | > 20 µg/mL | Cc1cc(OCC(=O)O)cc2c1O[C@](C)(CCC[C@H](C)CCC[C@H](C)CCCC(C)C)CC2 [Compound 9, 2,8-dimethyl-(2R-(4R,8R,12-trimethyltridecyl)chroman-6-yloxy)acetic acid] | effective | > 20 µg/mL |  |
| > 20 µg/mL | 5 to 10 µg/mL (≈ 10.5 to 21.1 µM) | 1 to 5 µg/mL (≈ 2.11 to 10.5 µM) | 5 to 10 µg/mL (≈ 10.5 to 21.1 µM) | 5 to 10 µg/mL (≈ 10.5 to 21.1 µM) | 5 to 10 µg/mL (≈ 10.5 to 21.1 µM) | 5 to 10 µg/mL (≈ 10.5 to 21.1 µM) | 10 to 20 µg/mL (≈ 21.1 to 42.1 µM) | 10 to 20 µg/mL (≈ 21.1 to 42.1 µM) | 10 to 20 µg/mL (≈ 21.1 to 42.1 µM) | Cc1c(OCC(=O)O)cc2c(c1C)O[C@](C)(CCC[C@H](C)CCC[C@H](C)CCCC(C)C)CC2 [Compound 8, 2,7,8-trimethyl-(2R-(4R,8R,12-trimethyltridecyl)chroman-6-yloxy)acetic acid] | effective | > 20 µg/mL |  |

The remaining lines, values behind:

| Structure (SMILES) | EC50 (HMEC) | EC50 (MDA-MB-435) | EC50 (RL-95-2) | EC50 (LnCaP) | EC50 (PC-3) | EC50 (MDA-MB-231) | EC50 (ME-180) | EC50 (HL-60) | EC50 (MCF-7) | EC50 (C-170) | growth inhibitory (apoptotic inducing) properties specific for human cancer cells [1] | EC50 (MCF-10A) | also measured |
| --- | --- | --- | --- | --- | --- | --- | --- | --- | --- | --- | --- | --- | --- |
| Cc1c(C)c2c(c(C)c1OCCCN)CC[C@@](C)(CCC[C@H](C)CCCC(C)CCCC(C)C)O2.Cl (some centres unmarked) [Compound 19] |  |  |  |  |  |  |  |  |  |  | effective |  | apoptotic EC50 (MDA-MB-435; MDA-MB-435, unit not given, in µg/mL): 10-20; apoptotic EC50 (LnCaP; unit not given, in µg/mL): 5-10; apoptotic EC50 (ME-180; ME-180, unit not given, in µg/mL): 1-5; apoptotic EC50 (HL-60; HL-60, unit not given, in µg/mL): 10-20; apoptotic EC50 (MCF-7; MCF-7, unit not given, in µg/mL): 10-20; apoptotic EC50 (DU-145; unit not given, in µg/mL): 5-10; apoptotic EC50 (Jurkat): 10-20; apoptotic EC50 (A-549): 20-30; apoptotic EC50 (C-170; C-170, unit not given, in µg/mL): 1-5 |
| Cc1c(C)c2c(c(C)c1OCC(=O)N(CC(=O)O)CC(=O)O)CC[C@@](C)(CCC[C@H](C)CCC[C@H](C)CCCC(C)C)O2 [Compound 12] | > 20 µg/mL | 5 to 10 µg/mL (≈ 8.28 to 16.6 µM) | 5 to 10 µg/mL (≈ 8.28 to 16.6 µM) | 20 to 30 µg/mL (≈ 33.1 to 49.7 µM) | 10 to 20 µg/mL (≈ 16.6 to 33.1 µM) | 5 to 10 µg/mL (≈ 8.28 to 16.6 µM) | 5 to 10 µg/mL (≈ 8.28 to 16.6 µM) | 20 to 30 µg/mL (≈ 33.1 to 49.7 µM) | 5 to 10 µg/mL (≈ 8.28 to 16.6 µM) | 10 to 20 µg/mL (≈ 16.6 to 33.1 µM) | effective | > 20 µg/mL |  |
| COC(=O)COc1c(C)c(C)c2c(c1C)CC[C@@](C)(CCC[C@H](C)CCC[C@H](C)CCCC(C)C)O2 [Compound 11, Methyl 2,5,7,8-tetramethyl-(2R-(4R,8R,12-trimethyltridecyl)chroman-6-yloxy)acetate] | > 20 µg/mL | > 20 µg/mL | > 20 µg/mL | > 20 µg/mL | > 20 µg/mL | > 20 µg/mL | > 20 µg/mL | > 20 µg/mL | > 20 µg/mL | > 20 µg/mL |  | > 20 µg/mL |  |
| Cc1c(C)c2c(c(C)c1OCC(=O)O)CCC(C)(C)O2 [Compound 14, 2-(2,5,7,8-pentamethylchroman-6-yloxy)acetic acid] | > 20 µg/mL | > 20 µg/mL | > 20 µg/mL | > 20 µg/mL | > 20 µg/mL | > 20 µg/mL | > 20 µg/mL | > 20 µg/mL | > 20 µg/mL | > 20 µg/mL |  | > 20 µg/mL |  |
